Source: BigSolDB 2.1

N#CCC(N)=O
solubility (mole fraction)
Settings	273.15 K	278.15 K	283.15 K	288.15 K	293.15 K	298.15 K	303.15 K	308.15 K	313.15 K	318.15 K
in 1,4-dioxane	–	–	–	0.0127	0.0155	0.0186	0.0226	0.0278	0.0342	0.0407
in DMF	0.254	0.262	0.271	0.283	0.295	0.309	0.325	0.343	0.36	0.382
in THF	0.00988	0.0112	0.0128	0.0145	0.0164	0.0187	0.0209	0.0236	0.0268	0.0301
in acetone	0.0248	0.0286	0.0335	0.039	0.0453	0.0527	0.0612	0.0712	0.0833	0.0956
in acetonitrile	0.0154	0.0187	0.0232	0.0272	0.0329	0.0389	0.0469	0.0553	0.0671	0.0795
in chloroform	0.000389	0.000465	0.000562	0.000678	0.000821	0.000985	0.00119	0.00143	0.00173	0.00208
in dichloromethane	0.000321	0.000388	0.000471	0.000559	0.000668	0.000792	0.000931	0.00112	–	–
in ethanol	0.00455	0.00558	0.00681	0.0087	0.0105	0.0129	0.0157	0.0188	0.0229	0.0277
in ethyl acetate	0.0043	0.00509	0.00602	0.00694	0.00829	0.00951	0.011	0.0128	0.0149	0.017
in methanol	0.0126	0.0156	0.0186	0.0227	0.0273	0.0332	0.04	0.0482	0.0558	0.0674
in methyl acetate	0.0115	0.0137	0.0163	0.0195	0.0228	0.0263	0.0307	0.0355	0.0408	0.0467
in n-butanol	0.00201	0.00246	0.00298	0.00377	0.00456	0.0055	0.00667	0.00797	0.00982	0.0119
in n-propanol	0.0022	0.00274	0.00355	0.00461	0.00591	0.00755	0.00935	0.0117	0.0147	0.0182
in water	–	0.0136	0.0179	0.0233	0.0313	0.0405	0.0519	0.0674	0.0887	0.114
